According to patent US8669232B2, “Flavonol compounds, a bioactive extract/fraction from Ulmus wallichiana and its compounds for prevention for treatment of osteo-health related disorders” (Council of Scientific & Industrial Research, priority 2008, dated 2014):

Experiments:
Ishikawa cells = assay: In vitro estrogenicity / anti-estrogenicity (ALP induction); type: cell-based, human; conditions: 10^−11 to 10^−6 M, 72 h
Method: The expression of alkaline phosphatase is induced in Ishikawa cells in response to estrogen or estrogen like substances (Littlefield et al, Endocrinology. 1990 December; 127(6):2757-62.). Ishikawa cells were plated in 96-well flat bottomed microtiter plates at a density of 5000 cells/well and cultured in phenol red free DMEM containing 10% charcoal treated FCS. After 24 h of plating, cells were serum-starved for 12 h. Thereafter, for testing estrogenicity of compounds, the cells were treated with different concentrations (10^−6 to 10^−11 M) of pure compounds K058 and K012. Same concentrations of Raloxifene were also used for comparison. Estrogen concentration of 10^−8 M was used as a positive control. Compound treatments were performed for 72 h at 37° C. in CO2 incubator. Experiments were repeated 4 times. For the anti-estrogenicity studies, the compounds K012 and K058 at 10^−6 to 10^−11 M were added with 10^−8 M estrogen. After 72 h of incubation, the media was removed and the plates were washed twice with PBS and dried by tapping, gently. Freeze fracture of cells was achieved by placing the plates at −70° C. for 15, min followed by bringing to room temperature. The plates were then placed on ice and 50 μl of ice cold diethanolamine solution (5 mM P-nitrophenyl phosphate (PNP) and 0.25 mM MgCl2 in 1 M diethanolamine) was added to each well. The plates were then placed at 37° C. for 30 minutes for color (yellow) development is a function of ALP activity. Absorbance was measured at 405 nm.

Bone marrow cells (BMCs) = assay: In vitro mineralization from mouse bone marrow; type: cell-based, balb/c mice; conditions: 1 nM and 100 nM, 21 days
Description: Adult balb/c mice were used in this study. Bone marrow cells (BMCs) were harvested from the femurs and tibias of the animals, as described elsewhere (Maniatopoulos et al. Cell Tissue Res 1988:254:317-30.; Ishaug et al., J Biomed Mater Res 1997; 36:17-28.). Briefly, bones were aseptically excised from the hind limbs of the mice following ether euthanasia. The soft tissue was removed, and the proximal end of the femur and distal end of the tibia were clipped off using sterile scissors, a hole was created in the knee joint end of each bone with an needle, and the marrow was flushed from the shaft with control medium (CM) which consisted of α-MEM supplemented with 10% fetal calf serum, 100 U/ml penicillin, 100 U/ml streptomycin (Sigma, Chemical Co., St. Louis, Mo., USA). The cells were suspended in this medium, and the cell suspensions from all bones were combined in a centrifuge tube. The suspension was spun down at 800 rpm for 5 min. Cells were counted by using a haemocytometer. The supernatant was aspirated, and the pellet was re-suspended in fresh CM and then seeded into 12-well plates. 200000 cells/well were cultured in 12-well plates and in a humidified atmosphere, with 5% CO2, at 37° C. in the same medium supplemented with 10 mM-β-glycerophosphate, 50 μg/ml L-ascorbic acid and 10^−8M dexamethasone with different concentration of the test compound. This medium was replaced every other day (John et al. Trends. Biomater. Artif. Organs 2002:16(1):28-33.; Connolly. Clin Orthop 1995:313: 8-18.; Gebhart and Lane. Acta Orthop Belg 1991:57(2):130-43.; Gurpinar et al. J Biomater Appl 2003; 18(1):25-33; Lan and Wang, Blood Substitutes. Biotechnol 2003; 31(1):59-68.). Treatments K012, K058, K068 and K0100 at 1 nM and 100 nM concentration were given for 21 days and after completion of the treatment samples were rinsed with PBS followed by fixation (4% HCHO for […]). Samples were then rinsed with nanopure water and stained for 10 min with 40 mM AR-S, pH 4.2, at room temperature. Photomicrographs of the stained wells were taken. Subsequently, alizarin red-S stain was extracted using 10% (w/v) CPC in […] sodium phosphate, pH 7.0, for […] at room temperature, and the resulting solutions were read on a Microplate reader with a test wavelength of 540 nm against a reference wavelength of 620 nm.

calvarial osteoblasts [1] = assay: Alkaline phosphatase activity assay in calvarial osteoblasts; type: cell-based, neonatal Sprague-Dawley rats
Method: (§1) Neonatal rat calvarial cell cultures are prepared as described previously (Chattopadhyay et al., Endocrinology 145:3451-62, 2004) using slight modification. Briefly, for calvarial osteoblast cultures, frontal and parietal bones from neonatal Sprague-Dawley rats (1-3 day old) were digested in 0.1% collagenase/0.1% dispase in α-MEM to obtain 5 sequential digests. The second through fifth digests are combined and grown to confluence at 37° C. and 5% CO2 in air in α-MEM, supplemented with 10% fetal bovine serum (FBS), 2 mM glutamine, 100 U/ml penicillin-streptomycin, non-essential amino acid solution and sodium pyruvate.
For alkaline phosphatase (ALP) assay, osteoblasts were plated in 96-well (2000 cells/well) plates in regular growth medium. Twenty-four hours later, when the cells formed a confluent monolayer, medium was replaced with α-MEM medium supplemented with 10% FBS, 10 mM β-glycerophosphate and 50 μg/ml ascorbic acid. Treatment was given with varying concentration of the test compound K012, K058, K068 and K100 at 1 nM and 100 nM concentration. Forty-eight hours after induction, ALP activity of the osteoblasts was determined as described by Akiyama et al (Exp Cell Res 235:362-369, 1997) with slight modifications. Briefly, cells were washed once with PBS and ALP activity was measured by adding ALP buffer (1 M diethanolamine, 0.5 mM MgCl2, 1 mg/ml PNPP, pH 9.0), incubating in 37° C., and absorbance (405 nm) was measured using a microplate spectrophotometer. Statistical significance was determined by paired two-tailed Student's t-tests.

[2] = test system: 3T3-L1 preadipocyte cells; assay: In vitro adipogenesis (oil red-O); type: cell-based, murine; conditions: for adipocyte differentiation (oil red-O): 1 μM, 100 nM and 1 nm, 8 days
Method: 3T3-L1 preadipocyte cells were cultured to confluency. Two days after the cells reached confluency was considered as day 0. At day 0, cells were treated with the induction media [10% calf serum/DMEM containing 1 μg/ml insulin, 1 μM dexamethasone and 500 μM isobutylmethylxanthine (IBMX). Two days after induction medium treatment (day 2), the cells were treated with insulin [10% calf serum/DMEM containing 1 μg/ml insulin. Full differentiation was usually achieved after 8 days from day 0. To test the effect of the test compound on the differentiation of 3T3-L1 preadipocytes to adipocytes, the test compounds K068 and K100 at 1 μM, 100 nM and 1 nm concentrations were used in different concentrations throughout differentiation (for 8 days starting from day 0). For assessment of adipogenesis the differentiated cells were fixed in 4% paraformaldehyde w/v for 20 min, washed with PBS and stained with 0.34% Oil Red 0 in 60% isopropanol for 15 minutes. Then it was washed with PBS thrice and stain was extracted with 80% isopropanol by keeping it at room temperature for 30 minutes on an orbital shaker. OD of the extracted dye was taken at 520 nm.

calvarial osteoblasts [3] = assay: In vitro mineralization of calvarial osteoblasts (alizarin red-S, von kossa); type: cell-based, neonatal Sprague-Dawley rats; conditions: for Von kossa staining (mineralized nodules) compared with controls (vehicle): 21 days culture
Method: as §1
Ability of cells to produce mineralized matrix is important with regard to development of materials for bone regeneration. Mineralization of extracellular matrix by osteoblasts was determined using alizarin red-S (AR-S) assay combined with cetylpyridinium chloride (CPC) extraction. (Stanford et al, J. Biol. Chem. 270:9420-9428; 1995.) Alizarin red is a dye that binds selectively to nascent calcium salts and is widely used for calcium mineral histochemistry. Cells were seeded onto a six well plate containing 10000 cells/well in culture medium supplemented with 10 mM β-glycerophosphate and 50 μg/ml ascorbic acid with test compounds K012, K058, K068 and K0100 at 1 nM and 100 nM concentration. Treatment was given for 21 days and after completion of the treatment samples were rinsed with PBS followed by fixation (4% HCHO for 20 min). Photomicrographs of the stained wells were taken. Subsequently, alizarin red-S stain was extracted using 10% (w/v) cetylpyridinium chloride (CPC) in […] sodium phosphate, pH 7.0, for 15 min at room temperature, and the resulting solutions were read on a Microplate reader with a test wavelength of 540 nm against a reference wavelength of 620 nm. Mineralization nodules were also seen by Von kossa staining procedure (A. M. Chou et al. Materials Science and Engineering C 20 (2002) 77-83.) After 21 days culture, cells in tissue culture wells were washed with PBS and immersed in 5% (w/v) silver nitrate solution for 45 min. After rinsing with distilled water, they were fixed in 5% (w/v) sodium bicarbonate formalin for 8 min. Finally, they were immersed in 5% (w/v) sodium thiosulphate solution for 5 min and washed thoroughly with water for 15 min and photomicrographs were taken.

3T3-L1 preadipocytes = assay: Semi-quantitative RT-PCR of adipogenic genes; type: cell-based, murine; conditions: 10^−7 & 10^−9M, 8 d
Method: RT-PCR was performed for assessing the expression of PPAR-γ (peroxisome proliferator-activated receptor) and adiponectin. The house keeping gene GAPDH was used as the internal control in this study. 3T3-L1 preadipocytes were cultured under differentiation condition to form adipocytes in the presence of K068 and K100 at 10^−6, 10^−7 and 10^−9 M concentrations for 8 days. Following the culture, cellular RNA was extracted and RT-PCR performed using a kit (Fermentas) according to manufacturer's instructions.

| osteoblast differentiation (summary of in vitro effects) (calvarial osteoblasts [1]) | SMILES | ALP levels (estrogenicity) (Ishikawa cells) | mineralization of bone marrow osteoblasts (alizarin red staining) (Bone marrow cells (BMCs)) | anti-adipogenic activity in 3T3 L1 cell line (summary of in vitro effects) [2] | adipocyte differentiation (oil red-O) [2] | osteoblast mineralization (summary of in vitro effects) (calvarial osteoblasts [3]) | Von kossa staining (mineralized nodules) compared with controls (vehicle) (calvarial osteoblasts [3]) | mRNA levels of PPAR-γ (3T3-L1 preadipocytes) | mRNA levels of adiponectin (3T3-L1 preadipocytes) |
| --- | --- | --- | --- | --- | --- | --- | --- | --- | --- |
|  | O=C(c1ccc(OCCN2CCCCC2)cc1)c1c(-c2ccc(O)cc2)sc2cc(O)ccc12 [raloxifene, reference compound] | no response |  |  |  |  |  |  |  |
| promoted | O=C1CC(c2ccc(O)cc2)Oc2cc(O)c(C3O[C@H](CO)[C@@H](O)[C@H](O)[C@H]3O)c(O)c21 (some centres unmarked) [K068, 6-Glucopyranosyl-4′,5,7-trihydroxyflavanone] |  | stimulated | have anti-adipogenic activity | significantly inhibited | promoted | increased | decreased | decreased |
| promoted | O=C1c2c(cc(O)c([C@@H]3OC(CO)[C@@H](O)[C@H](O)C3O)c2O)O[C@@H](c2ccc(O)cc2)[C@@H]1O (stereo partly drawn) [K100, (2S,3S)-(+)-4′,5,7-trihydroxydihydroflavonol-6-C-β-D-glucopyranoside] |  | stimulated | have anti-adipogenic activity | significantly inhibited | promoted | increased | decreased | decreased |
